Measurements published in US4179467A, “Dopamine hydroxylase inhibiting 2-amino-cyclopent-1-ene-1-thiocarboxylic acid-disulfides” (Richter Gedeon Vegyeszeti Gyar Rt., priority 1976, dated 1979).
Where two headings read alike, the source gives them in different places.

Tests used:
[1] = in vivo; settings: mouse, in vivo, mice
[2] = system: serotonine and 5-hydroxy-indolylacetic acid levels of the cerebrum; assay: Serotonine and 5-hydroxy-indolylacetic acid levels of the cerebrum (brain) in rats, % of controls; type: in vivo, male Wistar rats; settings: rat; for response vs control in vivo at 100 mg/kg / response vs control in vivo at 200 mg/kg: ip; for response vs control in vivo at 500 mg/kg: po, p.o.
Procedure: (§1) The tests were performed on male Wistar rats weighing 150 to 200 g. The dopamine-β-hydroxylase inhibiting effects of the compounds were evaluated by determining the change of noradrenaline, dopamine and adrenaline levels of the cerebrum, heart, spleen and adrenal gland. The serotonine and 5-hydroxy-indolylacetic acid levels of the cerebrum were also determined. The measurements were performed as follows:
(§2) The animals were decapitated, the cerebrum, heart, spleen and adrenal gland were removed quickly, and the organs were frozen by placing them on a metal sheet cooled with dry ice. The frozen organs were stored for a maximum of one night at -20° C.
In a further test series the serotonine and 5-hydroxy-indolylacetic acid contents were also determined, in addition to the determination of the noradrenaline and dopamine content, from the same sample. In this instance the brains were homogenized in 10 ml of 75% ethanol, 0.2 ml of EDTA-Na2 and 5% of ascorbic acid were added to the homogenized mixtures, and the homogenized mixtures were maintained at -20° C. overnight. The mixtures were centrifuged as described above, and 5.0 ml samples of the supernatant were removed. The samples were diluted with equal volumes of distilled water, and poured onto ion exchange columns of 0.5×1.5 cm dimensions, filled with buffered Amberlite CG-30 (200 to 400 mesh). The columns were washed with 5 ml of distilled water followed by 1.0 ml of 0.2 N hydrochloric acid, and the first effluent and the aqueous wash were collected for the determination of 5-hydroxy-indolylacetic acid. Elution was continued with a further 1.2 ml quantity of 0.2 N hydrochloric acid in order to remove noradrenaline, dopamine and serotonine. Samples of 0.3 ml were used for the determinations.
Noradrenaline and dopamine were determined by the method of Shellenberger, modified as described above, whereas serotonine was determined by the method of Curzon et al. (Brit. J. Pharmacol. 39, 653 (1970)). The basic method was modified as follows: A 0.5% solution of ortho-phthal(di)aldehyde in absolute ethanol was diluted with […] hydrochloric acid to 50-fold of its original volume, and 0.6 ml of the resulting 0.01% ortho-phthal(di)aldehyde solution were added immediately to 0.5 ml of the serotonine-containing sample. The sample was placed in a hot water bath for 10 minutes, thereafter cooled with tap water, and the flourescence was recorded at wavelengths of 360 nm (excitation) and 490 nm (emission).
5-Hydroxy-indolylacetic acid was determined from the mixture of the first effluent and the aqueous wash. 10 ml of distilled water and 0.2 ml of concentrated hydrochloric acid were added to the mixture, and the sample was poured onto a 0.8×4.0 cm column filled with Sephadex G-10. The column was washed with 15 ml of 0.1 N hydrochloric acid followed by 1.8 to 2.0 ml of 0.02 N aqueous ammonia, and then 5-hydroxy-indolylacetic acid was eluted with further 2.0 ml of the aqueous ammonia. 0.5 ml samples were used in the measurements, and the determination was performed according to the method of Korf et al. (Biochem. Pharmacol. 20, 659 (1971)).
(§3) In the tests disulfiram, 2,2-dipyridyl, bis(1-methyl-4-homopiperazinyl-thiocarbonyl)-disulfide, sodium diethyldithiocarbamate and N-phenyl-N'-(2-thiazolyl)-thiourea were used as reference substances. The values indicated in Table 1 are the percentages in relation to the amine levels of the controls measured in the same tests (±standard error). The statistical calculations were performed on a TPA/i type computer, using Student's t test.

[3] = system: dopamine-β-hydroxylase; assay: Noradrenaline level of heart in rats, % of controls; type: in vivo, male Wistar rats; settings: rat, 4 hours
Procedure: (§4) The dopamine-β-hydroxylase inhibiting effects of the new compounds according to the invention were examined by the following tests:
as §1, §2
(§5) The organs were weighed in the frozen state and then homogenized in 5.0 ml of 0.4 N perchloric acid containing 0.05% of EDTA-Naa and 0.1% of Na2 S2 O5. The homogenized mixtures were centrifuged as described above for the treatment of adrenal gland, the supernatants were decanted, and the pH was adjusted to 8.0±0.1 with a 0.1 molar tris buffer containing 20 g/l of NaOH and 25 g/l of EDTA-Na2. 100 mg of prepared Al2 O3 (Anton et al.: J. Pharm. Ther. 138, 360 (1962)) were added to the samples, and the mixtures were shaken mechanically for 20 minutes. Thereafter the Al2 O3 was washed with 2×10 ml of distilled water, and noradrenaline was eluted with 1.0 ml of 0.05 N perchloric acid. 0.5 ml samples of the eluate were used for the determination of noradrenaline. Noradrenaline was determined according to the method of Shellenberger et al. (Anal. Biochem. 39, 356 (1971)), with the following modifications of the basic procedure: 0.5 ml of 0.1 molar Na-K-phosphate buffer, containing 9 g/l of EDTA-Na2, were added to 0.5 ml of the eluate, and the catecholamines (noradrenaline in the examination of heart and spleen and noradrenaline and dopamine in the examination of the cerebrum) were oxidized with 0.1 ml of a 0.1 N iodine solution in 5% potassium iodide. After exactly 2 minutes, oxidation was stopped by adding 0.25 ml of a 2.5% sodium sulfite solution in 4.4 N aqueous sodium hydroxide to the mixture. 2 minutes after the introduction of the alkaline sulfite solution, 0.2 ml of concentrated acetic acid was added to the samples, whereupon the pH decreased to 4.4 to 4.5. Thereafter the samples were placed for 5 minutes in a drying oven heated to 100° C., and then the samples were cooled with ice water. The fluorescency of noradrenaline was measured with an OPTON spectrophotometer at wavelengths of 380 nm (excitation) and 490 nm (emission).
as §3

[4] = system: dopamine-β-hydroxylase; assay: Noradrenaline level of spleen in rats, % of controls; type: in vivo, male Wistar rats; settings: rat, i.p., 200 mg/kg, 4 hours
Procedure: as §4
as §1, with “follows: […]” for “follows:”
The organs were weighed in the frozen state and then homogenized in 5.0 ml of 0.4 N perchloric acid containing 0.05% of EDTA-Naa and 0.1% of Na2 S2 O5. […] Noradrenaline was determined according to the method of Shellenberger et al. (Anal. Biochem. 39, 356 (1971)), with the following modifications of the basic procedure: 0.5 ml of 0.1 molar Na-K-phosphate buffer, containing 9 g/l of EDTA-Na2, were added to 0.5 ml of the eluate, and the catecholamines (noradrenaline in the examination of heart and spleen and noradrenaline and dopamine in the examination of the cerebrum) were oxidized with 0.1 ml of a 0.1 N iodine solution in 5% potassium iodide. […] The fluorescency of noradrenaline was measured with an OPTON spectrophotometer at wavelengths of 380 nm (excitation) and 490 nm (emission). […]

[5] = system: dopamine-β-hydroxylase; assay: Adrenaline level of adrenal gland in rats, % of controls; type: in vivo, male Wistar rats; settings: rat, i.p., 200 mg/kg, 4 hours
Procedure: as §4, §1, §2
The adrenal glands were freed from fat and homogenized in 3.0 ml of ice-cold 0.4 N perchloric acid. The homogenized mixtures were centrifuged for 10 minutes at 0° C. with a speed of 3200 r.p.m. using a Janetzky K-70 type centrifuge. 0.05 ml samples were taken from the supernatant, and the adrenaline level was determined directly by the method of Laverty et al. (Anal. Biochem. 22, 269 (1968)).
as §3

[6] = system: dopamine-β-hydroxylase; assay: Noradrenaline and dopamine levels of the cerebrum (brain) in rats, % of controls; type: in vivo, male Wistar rats; settings: rat, i.p., 200 mg/kg, 4 hours
Procedure: as §4, §1, §2, §5
The brains were homogenized in 10 parts by volume of 0.4 N perchloric acid. The homogenized mixture was stored at -20° C. overnight; thereafter it was thawed and centrifuged as described above. A sample of the homogenized mixture corresponding to 0.5 g of brain was removed, the pH of the sample was adjusted to 8.0±0.1 with 0.1 molar tris-buffer of the above composition, and the sample was processed as described above for the determination of the noradrenaline content of heart and spleen, with the difference that 1.5 ml of 0.05 N perchloric acid was used as the eluting agent. 0.5 ml of the eluate was used to determine the noradrenaline and dopamine contents. The measurement was performed as described above, with the difference that samples of 0.5 ml were applied for the recording of the flourescence of noradrenaline. The residue was placed for 50 minutes into a drying oven heated to 100° C., thereafter the sample was cooled with ice water, and the fluorescence of dopamine was recorded at wavelengths of 325 nm (excitation) and 380 nm (emission).
In a further test series the serotonine and 5-hydroxy-indolylacetic acid contents were also determined, in addition to the determination of the noradrenaline and dopamine content, from the same sample. […]

[7] = system: mice; assay: in vivo; settings: p.o.

With `COCCNC1=C(C(=S)SSC(=S)C2=C(NCCOC)CCC2)CCC1` [M-4, 2-(N-methoxyethyl)-amino-cyclopent-1-ene-thiocarboxylic acid disulfide] as the compound, how does the LD50 ([1]; ip) read?
Its LD50 is > 1500 mg/kg.

What about the response vs control in vivo at 100 mg/kg ([2]; i.p., 4 hours, read-out: Brain 5-HIAA level (percentages in relation to the controls)) of the same compound?
The response vs control in vivo at 100 mg/kg was 108 ± 9.6%.

And the response vs control in vivo at 100 mg/kg ([2]; i.p., 4 hours, read-out: Brain SE level (percentages in relation to the controls))?
Its response vs control in vivo at 100 mg/kg is 113 ± 2.8%.

And the response vs control in vivo at 200 mg/kg ([2]; i.p., 200 mg/kg, 4 hours, read-out: Brain 5-HIAA level (percentages in relation to the controls))?
The response vs control in vivo at 200 mg/kg was 151%.

What about the response vs control in vivo at 200 mg/kg ([2]; i.p., 200 mg/kg, 4 hours, read-out: Brain SE level (percentages in relation to the controls)) of the same compound?
Its response vs control in vivo at 200 mg/kg is 113 ± 5.6%.

And the response vs control in vivo at 200 mg/kg ([2]; i.p., 200 mg/kg, 8 hours, read-out: Brain 5-HIAA level (percentages in relation to the controls))?
Its response vs control in vivo at 200 mg/kg is 161%.

And the response vs control in vivo at 200 mg/kg ([2]; i.p., 200 mg/kg, 8 hours, read-out: Brain SE level (percentages in relation to the controls))?
Its response vs control in vivo at 200 mg/kg is 106 ± 7.5%.

What about the response vs control in vivo at 500 mg/kg ([2]; 4 hours, read-out: Brain 5-HIAA level (percentages in relation to the controls)) of the same compound?
Its response vs control in vivo at 500 mg/kg is 95.4 ± 6%.

What about the response vs control in vivo at 500 mg/kg ([2]; 4 hours, read-out: Brain SE level (percentages in relation to the controls)) of the same compound?
Its response vs control in vivo at 500 mg/kg is 103 ± 5.3%.

What about the response vs control in vivo at 500 mg/kg ([2]; 8 hours, read-out: Brain 5-HIAA level (percentages in relation to the controls)) of the same compound?
Its response vs control in vivo at 500 mg/kg is 106 ± 4.9%.

And the response vs control in vivo at 500 mg/kg ([2]; 8 hours, read-out: Brain SE level (percentages in relation to the controls))?
The response vs control in vivo at 500 mg/kg was 90.9 ± 6.7%.

And the “Heart NA level (percentages in relation to the controls)” value ([3]; p.o., 500 mg/kg)?
Its value is 86.4 ± 10.1%.

With `S=C(Nc1ccccc1)Nc1nccs1` [U-14624, N-phenyl-N'-(2-thiazolyl)-thiourea] as the compound, how does the “Spleen NA level (percentages in relation to the controls)” value [4] read?
Its value is 111%.

What about the LD50 ([1]; ip) of the same compound?
Its LD50 is ~680 mg/kg.

And the LD50 ([1]; po)?
Its LD50 is > 1000 mg/kg.

What about the “Adrenal gland adrenaline level (% of controls)” value [5] of the same compound?
Its value is 72%.

What about the “Brain 5-HIAA level (percentages in relation to the controls)” value ([2]; i.p., 200 mg/kg, 4 hours) of the same compound?
Its value is 175%.

And the “Brain SE level (percentages in relation to the controls)” value ([2]; i.p., 200 mg/kg, 4 hours)?
The value was 137%.

What about the “Heart NA level (percentages in relation to the controls)” value ([3]; i.p., 200 mg/kg) of the same compound?
Its value is 106%.

What about the “Brain DA level (percentages in relation to the controls)” value [6] of the same compound?
The value was 121%.

And the “Brain NA level (percentages in relation to the controls)” value [6]?
Its value is 31.6%.

Which LD50 [7] does the source give for Chlorofusaric acid here?
Its LD50 is 470 ± 85 mg/kg.
